Test system: HL60 cells
Assay: AsedaSciences SYSTEMETRIC Cell Health Screen (flow cytometry toxicity profiling)
Details: HL60, 4 h, 5 nM–100 µM; for CC: Cell Cycle score / CM: Cell morphology score / CMI: Cell membrane integrity score / GSH: Glutathione score / MMP: Mitochondrial membrane depolarization score / NMI1: Nuclear membrane integrity 1 score / NMI2: Nuclear membrane integrity 2 score / ROS: Reactive superoxide species score: probability 0–1, n = 2; for CHI: Cell Health Index: probability (0–1) of high-risk class, n = 2
Excerpt: To prioritize further optimization, in addition to cellular potency, we utilized the AsedaSciences® […]® Cell Health Screen. This live cell flow cytometry (FC) screen was developed to assess human safety risk for candidate pharmaceutical small molecules at the early hit-to-lead stage of development. The screen works by estimating the risk using a supervised machine learning (ML) classifier to assess a multiparametric cellular stress phenotype, produced by the test compound, relative to a training set of known compounds (Table S1). This screen has been designed for early pipeline risk estimation regardless of pharmaceutical class/disease type, so it uses HL60 as the reporter cell line.
The ML classifier was trained with 300 historically known compounds (on market or withdrawn drugs, research compounds, etc.), which were divided into two outcome classes based upon literature, clinical trials, and market histories where applicable. This external curation informed an outcome of “high-risk” or “low-risk”. All 300 compounds were also processed through the automated FC screen, populating each of the two classes with frequency distributions of empirical cell-based phenotypes.
To estimate human safety risk for an unknown compound, the ML classifier assesses the similarity of the test compound’s cell-based phenotype to the distributions of phenotypes in the two outcome classes. […] Phenotypes are derived from twelve FC detection parameters, including light scatter and a series of fluorescent physiological reporter dyes, that track cell stress-related endpoints.
To produce the Cell Health Index, the ML classifier uses all twelve FC parameters simultaneously in a multidimensional logistic regression model, so the CHI contains the most predictive power. In addition to the Cell Health Index, Table 4 also reports probability scores for eight cell stress-related endpoints. These scores are produced individually by passing information to the ML classifier relating to parameters that inform that endpoint. For example, to produce the cell morphology (CM) score, the ML classifier only uses the FC detection parameters for forward scatter (informing change in cell diameter) and side scatter (informing change in optical granularity of the cell) to inform the model. Together, these eight endpoints provide a “biological fingerprint”, allowing assessment of the degree to which SAR series members behave differently across endpoints.
In a 384-well platform, HL60 cells were exposed to a 10-step, 3 × dilution series of each test compound (5 nM–100 µM) for 4 h at 37 °C with 5% CO2. Each dilution series was screened in duplicate, occupying a total of 20 wells, allowing 16 test compounds to be assayed per plate. Each row contained one positive and one negative control well, for a total of 16 replicate positive/negative control pairs on each assay plate. Compound formatting, cell deposition, and dye application were performed robotically so that final assay conditions comprised 100,000 cells in a 40 µL volume. After the 4 h compound exposure, cells were immediately stained with a panel of fluorescent dyes that report physiological signatures of both mitochondrial dysfunction and gross cell stress. Fluorescence and forward/side-scatter data were collected using automated FC with no gating. FC data are processed by an automated algorithm for producing quality control measures and ML classification of compound phenotypes. • 2. HL60 cell culture production
HL60 cells were produced as suspension cultures in glass 850 cm^2 roller bottles with vented caps, at 1 RPM, 5% CO2, and 37 °C. […] Culture density was maintained at or below 1 × 10^6 cells/mL.

Compound | CC: Cell Cycle score | CM: Cell morphology score | CMI: Cell membrane integrity score | GSH: Glutathione score | MMP: Mitochondrial membrane depolarization score | NMI1: Nuclear membrane integrity 1 score | NMI2: Nuclear membrane integrity 2 score | ROS: Reactive superoxide species score | CHI: Cell Health Index
CN(CCOc1ccc(CC2SC(=O)NC2=O)cc1)c1ccccn1 (stereo not shown) [Rosiglitazone, reference compound] | 0.27 | 0.49 | 0.23 | 0.53 | 0.050 | 0.23 | 0.27 | 0.070 | 0.37
Cc1ccc(-c2cc(C(F)(F)F)nn2-c2ccc(S(N)(=O)=O)cc2)cc1 [Celecoxib, reference compound] | 0.61 | 0.56 | 0.94 | 0.36 | 0.51 | 0.53 | 0.51 | 0.96 | 0.54
Cc1ccnc2c1NC(=O)c1cccnc1N2C1CC1 [Nevirapine, reference compound] | 0.070 | 0.020 | 0.050 | 0.030 | 0.010 | 0.020 | 0.040 | 0.28 | 0.18
CN1CCN(CCCN2c3ccccc3Sc3ccc(Cl)cc32)CC1 [Prochlorperazine, reference compound] | 0.96 | 1.00 | 1.00 | 1.00 | 1.00 | 1.00 | 0.99 | 1.00 | 
COc1cc2ncnc(Nc3ccc(F)c(Cl)c3)c2cc1OCCCN1CCOCC1 [Gefitinib, reference compound] | 0.93 | 1.00 | 0.99 | 0.97 | 0.99 | 0.61 | 0.94 | 0.93 | 0.80
COc1cc2c(Nc3ccc(Cl)c(Cl)c3F)ncnc2cc1OC[C@@H]1C[C@@H]2CN(C)C[C@@H]2C1 [Tesevatinib, reference compound] | 0.96 | 1.00 | 1.00 | 1.00 | 1.00 | 0.91 | 0.99 | 1.00 | 0.92
Clc1cccc(Cl)c1N=C1NCCN1 [Clonidine, reference compound] | 0.060 | 0.00 | 0.030 | 0.10 | 0.010 | 0.15 | 0.040 | 0.040 | 0.14
CC/C(=C(\c1ccccc1)c1ccc(OCCN(C)C)cc1)c1ccccc1 [Tamoxifen, reference compound] | 0.98 | 1.00 | 1.00 | 1.00 | 1.00 | 1.00 | 0.99 | 1.00 | 
Cc1cn([C@@H]2C[C@@H](O)[C@H](CO)O2)c(=O)[nH]c1=O [Telbivudine, reference compound] | 0.020 | 0.010 | 0.040 | 0.070 | 0.010 | 0.11 | 0.050 | 0.030 | 
[H]/N=C(/N)N/C(=N/[H])NCCc1ccccc1 [Phenformin, reference compound] | 0.28 | 0.74 | 0.27 | 0.17 | 0.37 | 0.82 | 0.080 | 0.77 | 0.41
CC(c1cc2ccccc2s1)N(O)C(N)=O (stereo not shown) [Zileuton, reference compound] | 0.11 | 0.020 | 0.010 | 0.020 | 0.060 | 0.17 | 0.080 | 0.070 | 0.19
CC(CN1c2ccccc2Sc2ccccc21)N(C)C (stereo not shown) [Promethazine, reference compound] | 0.46 | 1.00 | 0.98 | 0.96 | 0.97 | 0.84 | 0.94 | 0.98 | 0.71
CC(C(=O)O)c1cccc(C(=O)c2ccccc2)c1 (stereo not shown) [Ketoprofen, reference compound] | 0.050 | 0.00 | 0.030 | 0.010 | 0.010 |  |  | 0.18 | 
Cc1ccc(=O)n(-c2ccccc2)c1 [Pirfenidone, reference compound] | 0.060 | 0.00 | 0.090 | 0.040 | 0.010 | 0.040 | 0.030 | 0.020 | 0.17
C=C(C)[C@H]1Cc2c(ccc3c2O[C@@H]2COc4cc(OC)c(OC)cc4[C@@H]2C3=O)O1 [Rotenone, reference compound] | 0.70 | 0.93 | 0.83 | 0.79 | 0.99 | 0.54 | 0.76 | 0.94 | 
O=C(O)CCc1nc(-c2ccccc2)c(-c2ccccc2)o1 [Oxaprozin, reference compound] | 0.060 | 0.00 | 0.090 | 0.030 | 0.000 | 0.040 | 0.12 | 0.16 | 

Source: paper PMC9329436, “Optimization of the 4-anilinoquin(az)oline scaffold as epidermal growth factor receptor (EGFR) inhibitors for chordoma utilizing a toxicology profiling assay platform” (Scientific Reports, 2022)
